4 molecules from ChEMBL document CHEMBL5715942, “A novel histone deacetylase 8 (HDAC8)-specific inhibitor PCI-34051 induces apoptosis in T-cell lymphomas” (Leukemia, 2008) can be followed below.

The source made the active and inactive calls. No cut-off for these calls is given here.

One assay relates to MOLT-4. As to the kind of experiment: Anti-proliferative activity against human MOLT-4 cells assessed as growth inhibition incubated for 72 hrs by alamar blue staining based fluorometric assay. Format: functional. In general terms: Resazurin is reduced to fluorescent resorufin, in cell work by metabolically active cells.
Assay [1] deals with RKO. In words: Anti-proliferative activity against human RKO cells assessed as growth inhibition incubated for 72 hrs by alamar blue staining based fluorometric assay. Format: functional.
Assay [2] concerns MCF7. As to the kind of experiment: Induction of apoptosis in human MCF7 cells incubated for 72 hrs by Annexin-V staining based flow cytometry analysis relative to control. Format: functional.
Another assay deals with THP-1. In words: Anti-proliferative activity against human THP-1 cells assessed as growth inhibition incubated for 72 hrs by alamar blue staining based fluorometric assay. Format: functional.
The subject of assay [3] is Jurkat. As to the kind of experiment: Cytotoxicity in tubulin in human Jurkat cells assessed as tubulin acetylation at 0.2 uM incubated for 24 hrs by Western blotting analysis. Format: functional, cell-based. Background: In western blotting, separated proteins are transferred to a membrane and probed.
Assay [4] deals with A549. In words: Induction of apoptosis in human A549 cells incubated for 72 hrs by Annexin-V staining based flow cytometry analysis relative to control. Format: functional. On the technique in general: In flow cytometry, cells or beads pass a laser one at a time.
The test system of assay [5] is HCT-116. As to the kind of experiment: Induction of apoptosis in human HCT-116 cells incubated for 72 hrs by Annexin-V staining based flow cytometry analysis relative to control. Format: functional.
The test system of assay [6] is MCF7. As to the kind of experiment: Anti-proliferative activity against human MCF7 cells assessed as growth inhibition incubated for 72 hrs by alamar blue staining based fluorometric assay. Format: functional.
Another assay deals with U-87 MG. In words: Anti-proliferative activity against human U87 cells assessed as growth inhibition incubated for 72 hrs by alamar blue staining based fluorometric assay. Format: functional, U-87MG ATCC.
The test system of assay [7] is A549. As to the kind of experiment: Anti-proliferative activity against human A549 cells assessed as growth inhibition incubated for 72 hrs by alamar blue staining based fluorometric assay. In kind it is functional.
Assay [8] concerns Jurkat. In words: Anti-proliferative activity against human Jurkat cells assessed as growth inhibition incubated for 72 hrs by alamar blue staining based fluorometric assay. Format: functional.
Assay [9] has as its system RKO. In words: Induction of apoptosis in human RKO cells incubated for 72 hrs by Annexin-V staining based flow cytometry analysis relative to control. Format: functional.
Assay [10] concerns HCT-116. As to the kind of experiment: Anti-proliferative activity against human HCT-116 cells assessed as growth inhibition incubated for 72 hrs by alamar blue staining based fluorometric assay. In kind it is functional.
The subject of assay [11] is Jurkat. As to the kind of experiment: Induction of apoptosis in human Jurkat cells assessed as decrease in FL-Bid at 5 uM incubated for 24 hrs by Western blotting analysis.
The next assay has as its system HeLa. In words: Anti-proliferative activity against human HeLa cells assessed as growth inhibition incubated for 72 hrs by alamar blue staining based fluorometric assay. In kind it is functional.
The test system of assay [12] is OVCAR-3. As to the kind of experiment: Induction of apoptosis in human OVCAR-3 cells incubated for 72 hrs by Annexin-V staining based flow cytometry analysis relative to control. In kind it is functional.
A further assay concerns CCRF-HSB-2. As to the kind of experiment: Anti-proliferative activity against human CCRF-HSB-2 cells assessed as growth inhibition incubated for 72 hrs by alamar blue staining based fluorometric assay. In kind it is functional.
A further assay deals with Ramos. As to the kind of experiment: Anti-proliferative activity against human Ramos cells assessed as growth inhibition incubated for 72 hrs by alamar blue staining based fluorometric assay. Format: functional.
The test system of the next assay is DB. In words: Anti-proliferative activity against human DB cells assessed as growth inhibition incubated for 72 hrs by alamar blue staining based fluorometric assay. In kind it is functional.
A further assay deals with RPMI-8226. As to the kind of experiment: Anti-proliferative activity against human RPMI-8226 cells assessed as growth inhibition incubated for 72 hrs by alamar blue staining based fluorometric assay. In kind it is functional.
A further assay has as its system K562. As to the kind of experiment: Anti-proliferative activity against human K562 cells assessed as growth inhibition incubated for 72 hrs by alamar blue staining based fluorometric assay. In kind it is functional.
Assay [13] concerns Jurkat. As to the kind of experiment: Cytotoxicity in human Jurkat cells assessed as histone acetylation at 0.2 uM incubated for 24 hrs by Western blotting analysis. Format: functional, cell-based.
The test system of a further assay is HuT78. As to the kind of experiment: Anti-proliferative activity against human HuT78 cells assessed as growth inhibition incubated for 72 hrs by alamar blue staining based fluorometric assay. In kind it is functional.
In the next assay the test system is Raji. As to the kind of experiment: Anti-proliferative activity against human Raji cells assessed as growth inhibition incubated for 72 hrs by alamar blue staining based fluorometric assay. Format: functional.
Assay [14] deals with OVCAR-3. In words: Anti-proliferative activity against human OVCAR-3 cells assessed as growth inhibition incubated for 72 hrs by alamar blue staining based fluorometric assay. In kind it is functional.
The next assay deals with SUD4. As to the kind of experiment: Anti-proliferative activity against human SU-DHL-4 cells assessed as growth inhibition incubated for 72 hrs by alamar blue staining based fluorometric assay. In kind it is functional.
In assay [15] the test system is Jurkat. As to the kind of experiment: Induction of apoptosis in human Jurkat cells assessed as intracellular calcium level at 0.4 uM in presence of Iodo-1 by spectrofluorimetric analysis. Format: functional, cell-based.
Assay [16] deals with Jurkat. As to the kind of experiment: Induction of apoptosis in human Jurkat cells assessed as increased intracellular calcium level in presence of Iodo-1 and U73122 by spectrofluorimetric analysis. Format: functional, cell-based.
In assay [17] the test system is J.gamma1. As to the kind of experiment: Induction of apoptosis in human J.gamma1 cells assessed as increased intracellular calcium level at 1 uM in presence of Iodo-1 by spectrofluorimetric analysis. In kind it is functional, cell-based.
Assay [18] relates to J.gamma1. In words: Induction of apoptosis in human J.gamma1 cells at 0.2 uM incubated for 24 hrs by Annexin-V staining based flow cytometry analysis relative to control. In kind it is functional.
For assay [19], the system named is Jurkat. In words: Induction of apoptosis in human Jurkat cells assessed as increase in intracellular calcium level in presence of Iodo-1 by spectrofluorimetric analysis. In kind it is functional, cell-based. The settings on record: dose 0.25-1 µM.
Assay [20] deals with J.gamma1. As to the kind of experiment: Induction of apoptosis in human J.gamma1 cells assessed as increased intracellular calcium level at 1 uM in presence of Iodo-1 and Ionomycin by spectrofluorimetric analysis. Format: functional, cell-based.
Assay [21] has as its system J.gamma1. As to the kind of experiment: Induction of apoptosis in human J.gamma1 cells assessed as increased intracellular calcium level in presence of Iodo-1 and U73122 by spectrofluorimetric analysis. Format: functional, cell-based.
Assay [22] relates to Jurkat. In words: Induction of apoptosis in human Jurkat cells assessed as increase in intracellular calcium level at 0.25 to 1 uM in presence of Iodo-1 and Ionomycin by spectrofluorimetric analysis. In kind it is functional, cell-based. The settings on record: dose 0.25-1 µM.
The test system of assay [23] is Jurkat. In words: Induction of apoptosis in human Jurkat cells assessed as intracellular calcium level at 0.8 uM in presence of Iodo-1 by spectrofluorimetric analysis. In kind it is functional, cell-based.

What is called GI50 is the concentration at which growth is held to half of that of the control. With `CN(C)Cc1c(C(=O)NCCOc2ccc(C(=O)NO)cc2)oc2ccccc12.Cl` [ABEXINOSTAT HYDROCHLORIDE], the 50% growth inhibitory concentration (GI50) in the assay on MOLT-4 was 120 nM; with RKO [1], 1500 nM; in the assay with THP-1 it was 75 nM; with MCF7 [6], 150 nM; in the assay with U-87 MG, 1200 nM; in the assay on A549 [7], 180 nM. The 50% growth inhibitory concentration (GI50) turned out to be 110 nM in the assay with Jurkat [8]; 200 nM in the assay on HCT-116 [10]; 200 nM with HeLa; 100 nM in the assay with CCRF-HSB-2; 130 nM with Ramos; 150 nM with DB. Moreover, the GI50 with RPMI-8226 was determined as 120 nM; with K562, 150 nM; in the assay with HuT78, 110 nM; in the assay with Raji it was 120 nM; with OVCAR-3 [14], 160 nM; in the assay on SUD4 it was 100 nM. Moreover, the Activity in the assay on MCF7 [2] worked out at 37%; with A549 [4] it was 47%; in the assay on HCT-116 [5], 70%; in the assay on RKO [9] it was 45%; in the assay with OVCAR-3 [12], 55%. The result with Jurkat [3], in the assay on Jurkat [11] and with Jurkat [13] was Active.
Consider `COc1ccc2c(c1)CC[C@@H]1[C@@H]2CC[C@]2(C)[C@@H](NCCCCCCN3C(=O)C=CC3=O)CC[C@@H]12`, for which the result in the assay on Jurkat [15] was inactive.
For the molecule `C/C=C(/C)C(=O)O[C@H]1C(C)=C2[C@H]([C@@H]1OC(=O)CCCCCCC)[C@@](C)(OC(C)=O)C[C@H](OC(=O)CCC)[C@@]1(O)[C@H]2OC(=O)[C@@]1(C)O` [THAPSIGARGIN], the outcome in the assay on Jurkat [16], in the assay with J.gamma1 [17], in the assay on J.gamma1 [20], in the assay with J.gamma1 [21] and in the assay with Jurkat [22] was Active. Besides, the Activity with J.gamma1 [18] is 12%; in the assay with Jurkat [19] it was “Dose-Dependent Effect”.
On to `COc1ccc2c(c1)CC[C@@H]1[C@@H]2CC[C@]2(C)[C@@H](NCCCCCCN3C(=O)CCC3=O)CC[C@@H]12`, for which the outcome in the assay on Jurkat [23] was inactive.
